Here are results for 20 compounds from patent US11512079B2, “Heterocycle substituted pyridine derivative antifungal agents” (Amplyx Pharmaceuticals, Inc., priority 2017, dated 2022).

Common to all, as to assay type: cell-based
The test system of assay [1] is Aspergillus fumigatus MYA3626. The experiment in a line: In vitro antifungal assay (Example IX), microdilution broth, MEC. The following applies: minimum effective concentration (shortening of hyphae), 35° C., 40-48 h, RPMI1640. The procedure:
(§1) Measurement of antifungal activity: […] Candida albicans 90028, Aspergillus fumigatus MYA3626, Rhizomucor pusillus 46342 and Cryptococcus neoformans […] strains were obtained from American Type Culture Collection (ATCC). […] (A. fumigatus) and 35° C. (R. pusillus). Water containing 1% Tween was directly added to the agar plate and gently agitated to wet and remove the Aspergillus conidia. For R. pusillus, water was added to the surface and gently massaged to wet and remove the spores. For both species, the conidia or spores and mycelial fragments were collected, followed by removal of mycelium, conidiophores and large clumps of conidia/spores. The resulting spore suspension was counted and diluted into RPMI1640 medium to adjust to a final suspension of 1-2×10^4 spores/mL. The suspension was used in the MEC measurement as described below. […] The compounds were weighed and DMSO was added to prepare a 10 mg/mL stock. The solutions were mixed by vortexing and sonication at 37° C. for 5-10 mins. The resulting solutions were sterile filtered using a PTFE filter, and aliquoted (12 μL or as needed) and stored at -20° C. Intermediate compound dilutions were prepared in sterile polypropylene tubes in 100% DMSO. […] This was validated by thorough mixing and reading at 600 nm on a microplate reader. The minimum concentration that led to shortening of hyphae as compared to hyphal growth in DMSO control wells was determined as the minimum effective concentration (MEC) for A. fumigatus and R. pusillus (as read for echinocandins). The use of the MIC and MEC endpoints against yeasts and molds, respectively has been described by Pfaller M A, Duncanson F, Messer S A, Moet G J, Jones […]. Antimicrob Agents Chemother. 2011. 55(11):5155-8. In vitro activity of a novel broad-spectrum antifungal, […], tested against Aspergillus spp. determined by CLSI and EUCAST broth microdilution methods. Results are shown in Table 2, and the letters indicate the following ranges in μg/mL: […]

The test system of assay [2] is Rhizomucor pusillus 46342. Described as above. The note with it: minimum effective concentration (shortening of hyphae), 35° C., 40-48 h, RPMI1640. The procedure:
as §1

Assay [3] deals with Candida albicans 90028. As to the kind of experiment: In vitro antifungal assay (Example IX), microdilution broth, MIC. The note with it: minimum inhibitory concentration (≥50% inhibition), 35° C., 40-48 h, RPMI1640. The procedure:
Measurement of antifungal activity: Antifungal activity of the compounds was evaluated in a microdilution broth assay as per Clinical and Laboratory Standard Institute methodology for yeast (for Candida and Cryptococcus) (1) and molds (for Aspergillus and Rhizomucor) (2). Candida albicans 90028, Aspergillus fumigatus MYA3626, Rhizomucor pusillus 46342 and Cryptococcus neoformans H99 strains were obtained from American Type Culture Collection (ATCC).
Preparation of Fungal Suspension. C. albicans 90028 and C. neoformans H99 strains were streaked from frozen stocks at −80° C. onto Sabouraud Dextrose Agar (SDA) plates. These were allowed to grow for 24 h (C. albicans) and 48 h (C. neoformans) at 35° C. before using them in the assay. 5-6 individual colonies were picked and diluted into sterile water to obtain a fungal suspension. The cell density of the suspension was determined and the culture diluted with RPMI1640 medium to obtain a fungal suspension of 2.5×10^3 cells/mL. The suspension was used in the MIC measurement as described below.
Preparation of Compound Stocks and Intermediate Dilutions: The compounds were weighed and DMSO was added to prepare a 10 mg/mL stock. The solutions were mixed by vortexing and sonication at 37° C. for 5-10 mins. The resulting solutions were sterile filtered using a PTFE filter, and aliquoted (12 μL or as needed) and stored at −20° C. Intermediate compound dilutions were prepared in sterile polypropylene tubes in 100% DMSO. The compound stock solution was first diluted in DMSO to obtain a concentration of […] to 0.19 μg/mL.
MIC/MEC Measurement: 99 μL 1 of the fungal suspension in RPMI1640 prepared as above was added to each well of a 96-well round bottom assay plate. 1 μL of the intermediate compound dilutions (200-0.19 μg/mL) were added to wells of the plate. This led to a 100-fold dilution of the intermediate dilutions resulting in a final compound concentration of 2-0.0019 μg/mL in the plate. 1 μL of DMSO was added to “No drug” control wells. The solutions were mixed by shaking on a plate shaker for 10 mins and plates incubated at 35° C. for 40-48 h (C. albicans, A. fumigatus, R. pusillus) and 72 h (Cryptococcus). […] This was validated by thorough mixing and reading at 600 nm on a microplate reader. The minimum concentration that led to shortening of hyphae as compared to hyphal growth in DMSO control wells was determined as the minimum effective concentration (MEC) for A. fumigatus and R. pusillus (as read for echinocandins). The use of the MIC and MEC endpoints against yeasts and molds, respectively has been described by Pfaller M A, Duncanson F, Messer S A, Moet G J, Jones R N, Castanheira M. Antimicrob Agents Chemother. 2011. 55(11):5155-8. In vitro activity of a novel broad-spectrum antifungal, E1210, tested against Aspergillus spp. determined by CLSI and EUCAST broth microdilution methods. Results are shown in Table 2, and the letters indicate the following ranges in μg/mL: […]
Background: Dilution methods test growth across graded concentrations, often in twofold steps.

Broadly, the minimal effective concentration is the smallest amount tested that counted as effective. High values mean weaker potency, low ones greater potency. As a reminder, the MIC is the lowest concentration found to suppress growth. Low values mean inhibition by little substance, high ones a need for much substance.

Molecules are shown by their SMILES. In brackets after ≈: the same amount, converted by molar mass.

Consider `Nc1ncccc1-c1cc(Cc2ccc(CCl)cc2)no1` [B, 3-(3-(4-(chloromethyl)benzyl)isoxazol-5-yl)pyridin-2-amine], for which the minimal effective concentration is 0.1 to 1 µg/mL in assay [1] and greater than 1 µg/mL in assay [2]. In assay [3], this compound yielded an MIC greater than 1 µg/mL.
Regarding `Nc1ncccc1-c1cc(Cc2ccc(O)cc2)no1` [C, 4-((5-(2-aminopyridin-3-yl)isoxazol-3-yl)methyl)phenol], the results for the minimal effective concentration in assay [1] and in assay [2] were 0.1 to 1 µg/mL and greater than 1 µg/mL, respectively. Besides, the minimum inhibitory concentration (MIC) in assay [3] is greater than 1 µg/mL.
For the compound `Nc1ncccc1-c1cc(Cc2ccc(F)nc2)no1` [E, 3-(3-((6-fluoropyridin-3-yl)methyl)isoxazol-5-yl)pyridin-2-amine], the minimal effective concentration in assay [1] and in assay [2] was greater than 1 µg/mL throughout. In addition, in assay [3], the MIC was greater than 1 µg/mL.
Regarding `Nc1ncccc1-c1cc(Cc2ccc(CNc3nc4ccccc4[nH]3)cc2)no1` [Example 145, N-(4-((5-(2-aminopyridin-3-yl)isoxazol-3-yl)methyl)benzyl)-1H-benzo[d]imidazol-2-amine], the minimal effective concentration in assay [1] and in assay [2] was greater than 1 µg/mL each time. The MIC in assay [3] is greater than 1 µg/mL.
Turning to `Nc1ncccc1-c1cc(Cc2cccc(OCCc3cccc(F)c3)n2)no1` [Example 147, 3-(3-((6-(3-fluorophenethoxy)pyridin-2-yl)methyl)isoxazol-5-yl)pyridin-2-amine], the minimal effective concentration in assay [1] and in assay [2] was greater than 1 µg/mL in each case. This compound had an MIC in assay [3] greater than 1 µg/mL.
`Nc1ncccc1-c1cc(Cc2ccc(Cc3cccc(C(F)(F)F)n3)cc2)no1` [Example 151, 3-(3-(4-((6-(trifluoromethyl)pyridin-2-yl)methyl)benzyl)isoxazol-5-yl)pyridin-2-amine]: the minimal effective concentration in assay [1] and in assay [2] was 0.1 to 1 µg/mL throughout. In addition, in assay [3], the minimum inhibitory concentration (MIC) was 0.1 to 1 µg/mL (≈ 0.244 to 2.44 µM).
`Cn1ccc(Cc2ccc(Cc3cc(-c4cccnc4N)on3)cc2)n1` [Example 152, 3-(3-(4-((1-methyl-1H-pyrazol-3-yl)methyl)benzyl)isoxazol-5-yl)pyridin-2-amine]: the minimal effective concentration in assay [1] was 0.01 to 0.1 µg/mL; in assay [2] it was greater than 1 µg/mL. Further, the MIC in assay [3] lay in the range of 0.01 to 0.1 µg/mL (≈ 0.029 to 0.29 µM).
With `Nc1ncccc1-c1cc(Cc2ccc(NCc3ccc(F)cc3)nc2)no1` [Example 153, 5-((5-(2-aminopyridin-3-yl)isoxazol-3-yl)methyl)-N-(4-fluorobenzyl)pyridin-2-amine], the minimal effective concentration is 0.01 to 0.1 µg/mL in assay [1] and greater than 1 µg/mL in assay [2]. In assay [3], this compound showed an MIC of 0.1 to 1 µg/mL (≈ 0.266 to 2.66 µM).
For `Cc1ncsc1CCOc1ccc(Cc2cc(-c3cccnc3N)on2)cn1` [Example 155, 3-(3-((6-(2-(4-methylthiazol-5-yl)ethoxy)pyridin-3-yl)methyl)isoxazol-5-yl)pyridin-2-amine], the minimal effective concentration in assay [1] and in assay [2] was greater than 1 µg/mL in each case. In assay [3], this compound had a minimum inhibitory concentration (MIC) greater than 1 µg/mL.
Regarding `Nc1ncccc1-c1cc(Cc2ccc(OCCc3cc(F)c(F)cc3F)nc2)no1` [Example 158, 3-(3-((6-(2,4,5-trifluorophenethoxy)pyridin-3-yl)methyl)isoxazol-5-yl)pyridin-2-amine], the minimal effective concentration was 0.1 to 1 µg/mL in assay [1] and greater than 1 µg/mL in assay [2]. Further, in assay [3], the MIC fell in the range of 0.1 to 1 µg/mL (≈ 0.235 to 2.35 µM).
Turning to `Nc1ncccc1-c1cc(Cc2ccc(OCCc3c(F)cccc3Cl)nc2)no1` [Example 159, 3-(3-((6-(2-chloro-6-fluorophenethoxy)pyridin-3-yl)methyl)isoxazol-5-yl)pyridin-2-amine], the minimal effective concentration in assay [1] was 0.1 to 1 µg/mL; in assay [2], greater than 1 µg/mL. This compound also came in with an MIC in assay [3] of 0.1 to 1 µg/mL (≈ 0.235 to 2.35 µM).
On to `Nc1ncccc1-c1cc(Cc2ccc(OCc3ncccc3F)nc2)no1` [Example 162, 3-(3-((6-((3-fluoropyridin-2-yl)methoxy)pyridin-3-yl)methyl)isoxazol-5-yl)pyridin-2-amine], for which the minimal effective concentration in assay [1] was 0.1 to 1 µg/mL; in assay [2] it was greater than 1 µg/mL. Further, the MIC in assay [3] fell in the range of 0.01 to 0.1 µg/mL (≈ 0.0265 to 0.265 µM).
For the compound `CC(C)(COc1ccc(Cc2cc(-c3cccnc3N)on2)cn1)c1ccccc1` [Example 163, 3-(3-((6-(2-methyl-2-phenylpropoxy)pyridin-3-yl)methyl)isoxazol-5-yl)pyridin-2-amine], the minimal effective concentration in assay [1] and in assay [2] was 0.1 to 1 µg/mL throughout. In addition, the minimal inhibitory concentration (MIC) in assay [3] was greater than 1 µg/mL.
For `Nc1ncccc1-c1cc(Cc2ccc(OCc3cccc4ccccc34)nc2)no1` [Example 164, 3-(3-((6-(naphthalen-1-ylmethoxy)pyridin-3-yl)methyl)isoxazol-5-yl)pyridin-2-amine], the figures for the minimal effective concentration in assay [1] and in assay [2] were 0.1 to 1 µg/mL and greater than 1 µg/mL, respectively. Besides, the MIC in assay [3] was greater than 1 µg/mL.
Regarding `CC(C)=CCOc1ccc(Cc2cc(-c3cccnc3N)on2)cn1` [Example 166, 3-(3-((6-((3-methylbut-2-en-1-yl)oxy)pyridin-3-yl)methyl)isoxazol-5-yl)pyridin-2-amine], the figures for the minimal effective concentration in assay [1] and in assay [2] were 0.01 to 0.1 µg/mL and 0.1 to 1 µg/mL, respectively. Further, the minimal inhibitory concentration (MIC) in assay [3] is 0.1 to 1 µg/mL (≈ 0.297 to 2.97 µM).
Regarding `Nc1ncccc1-c1cnn(Cc2ccc(Oc3ccccc3)nc2)c1` [compound 63, 3-(1-((6-phenoxypyridin-3-yl)methyl)-1H-pyrazol-4-yl)pyridin-2-amine], in assay [2], the minimal effective concentration is greater than 1 µg/mL. Further, in assay [3], the minimal inhibitory concentration (MIC) was in the range of 0.1 to 1 µg/mL (≈ 0.291 to 2.91 µM).
In turn, `c1ccc(Oc2ccc(Cn3cc(-c4cccnc4)cn3)cn2)cc1` [compound 64, 2-phenoxy-5-((4-(pyridin-3-yl)-1H-pyrazol-1-yl)methyl)pyridine] came in with a minimal effective concentration in assay [2] greater than 1 µg/mL. Also, in assay [3], the MIC was 0.1 to 1 µg/mL (≈ 0.305 to 3.05 µM).
In the case of `Nc1ncccc1-c1cc(Cc2ccc(OCCc3cccc(F)c3)nc2)no1` [compound 91, 3-(3-((6-(3-fluorophenethoxy)pyridin-3-yl)methyl)isoxazol-5-yl)pyridin-2-amine], in assay [2], the minimal effective concentration is greater than 1 µg/mL.
On the same count and under the same terms, next, `Nc1ncccc1-c1cc(Cc2ccc(OCc3cc(Cl)ccn3)nc2)no1` [compound 92, 3-(3-((6-((4-chloropyridin-2-yl)methoxy)pyridin-3-yl)methyl)isoxazol-5-yl)pyridin-2-amine]: 0.1 to 1 µg/mL.
The compound `Nc1ncccc1-c1cc(Cc2ccc(CNc3nc(=O)[nH]cc3F)cc2)no1` [compound 232, 4-((4-((5-(2-aminopyridin-3-yl)isoxazol-3-yl)methyl)benzyl)amino)-5-fluoropyrimidin-2(1H)-one] came in with a minimal effective concentration in assay [1] greater than 1 µg/mL. Also, the MIC in assay [3] is greater than 1 µg/mL.
